The values that follow are results of earlier work, collected in paper PMC7876056, “Population Pharmacokinetic Analysis of Yimitasvir in Chinese Healthy Volunteers and Patients With Chronic Hepatitis C Virus Infection” (Frontiers in Pharmacology, 2021).

The conditions of this series: cited from earlier work; for Time-varying ALT as covariate on PK: healthy volunteers and HCV patients.
The mark [1] stands for this setting: ref U.S. Food and Drug Administration, 2014.
Where [2] appears, read: ref U.S. Food and Drug Administration, 2016.

Where two headings read alike, the source gives them in different places.

Turning to `COC(=O)N[C@H](C(=O)N1CCC[C@H]1c1nc(-c2ccc(-c3ccc(-c4c[nH]c([C@@H]5CCCN5C(=O)[C@@H](NC(=O)OC)C(C)C)n4)cc3)cc2)c[nH]1)C(C)C` [daclatasvir], the “Time-varying ALT as covariate on CL/F” value (patient population only, ref Chan et al., 2017) is “significant covariate”. In addition, under “ref Chan et al., 2017”, the “Effect of time-varying ALT on AUCss” value was “small” and the “Gender effect on CL/F” value is on record as “lower CL/F values in females”.

Consider `COC(=O)N[C@H](C(=O)N1CC2(CC2)C[C@H]1c1ncc(-c2ccc3c(c2)C(F)(F)c2cc(-c4ccc5nc([C@@H]6[C@H]7CC[C@H](C7)N6C(=O)[C@@H](NC(=O)OC)C(C)C)[nH]c5c4)ccc2-3)[nH]1)C(C)C` [ledipasvir], for which, under setting [1], the “Time-varying ALT as covariate on PK” value is “not identified as a significant covariate” and the “Gender effect on CL/F” value was “lower CL/F values in females”. Further, for the setting “ref German et al., 2016”, the “Effect of co-medication of sofosbuvir on PK profile” value is given as “not affected by co-medication of sofosbuvir”.

As to `COC[C@H]1C[C@@H](c2ncc(-c3ccc4c(c3)COc3cc5c(ccc6nc([C@@H]7CC[C@H](C)N7C(=O)[C@@H](NC(=O)OC)C(C)C)[nH]c65)cc3-4)[nH]2)N(C(=O)[C@H](NC(=O)OC)c2ccccc2)C1` [velpatasvir], under setting [2], the “Time-varying ALT as covariate on PK” value is listed as “not identified as a significant covariate” and the “Gender effect on CL/F” value is “lower CL/F values in females”. The “Effect of co-medication of sofosbuvir on PK profile” value (ref Brieva et al., 2017) is on record as “not affected by co-medication of sofosbuvir”.
